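Five concentrations, 48 hours, 96-well plates. TGI marks complete inhibition of growth.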
What was measured:
Test in all cases: NCI anticancer screen, dose series, 48 h
[1] = tested on: OVCAR-5 ovarian
[2] = tested on: HL-60(TB) leukemia
[3] = tested on: OVCAR-4 ovarian
[4] = tested on: RXF 393 renal
[5] = tested on: RPMI-8226 leukemia
[6] = tested on: M19-MEL melanoma
[7] = tested on: LXFL 529 NSCLC
[8] = tested on: HCT-116 colon
[9] = tested on: SNB-78 CNS
[10] = tested on: NCI-H460 lung
[11] = tested on: SW-620 colon
[12] = tested on: MALME-3M melanoma
[13] = tested on: CCRF-CEM leukemia
[14] = tested on: SK-MEL-28 melanoma
[15] = tested on: SNB-75 CNS
[16] = tested on: A498 renal
[17] = tested on: HCT-15 colon
[18] = tested on: SF-295 CNS
[19] = tested on: HOP-62 NSCLC
[20] = tested on: NCI-H226 lung
[21] = tested on: HOP-92 NSCLC
[22] = tested on: M14 melanoma
[23] = tested on: UACC-62 melanoma
[24] = tested on: DMS 273 small cell lung
[25] = tested on: SK-MEL-5 melanoma
[26] = tested on: HT29 colon
[27] = tested on: UO-31 renal
[28] = tested on: KM12 colon
[29] = tested on: SNB-19 CNS
[30] = tested on: DLD-1 colon
[31] = tested on: DMS 114 small cell lung
[32] = tested on: RXF-631 renal
[33] = tested on: ACHN renal
[34] = tested on: LOX IMVI melanoma
[35] = tested on: 786-0 renal
[36] = tested on: OVCAR-3 ovarian
[37] = tested on: SF-539 CNS
[38] = tested on: UACC-257 melanoma
[39] = tested on: U251 CNS
[40] = tested on: COLO 205 colon
[41] = tested on: EKVX NSCLC
[42] = tested on: K-562 leukemia
[43] = tested on: SN12C renal
[44] = tested on: XF 498 CNS
[45] = tested on: IGROV1 ovarian
[46] = tested on: CAKI-1 renal
[47] = tested on: HOP-18 NSCLC
[48] = tested on: MOLT-4 leukemia
[49] = tested on: NCI-H522 lung
[50] = tested on: TK-10 renal
[51] = tested on: A549 NSCLC
[52] = tested on: OVCAR-8 ovarian

Measured: TGI

COc1ccccc1/C=C\c1cc(OC)c(OC)c(OC)c1
81.6 µM: [21]
96.2 µM: [20]
60.4 µM: [27]
36.6 µM: [4]
20.1 µM: [2]
16.9 µM: [40]
72.6 µM: [15]
54.7 µM: [16]
46.4 µM: [37]
98.6 µM: [48]
13.5 µM: [25]
43.7 µM: [5]
45.5 µM: [49]
89.4 µM: [1]
55.6 µM: [36]
48 µM: [44]
> 100 µM: all other assays above

Source: PubChem BioAssay (NCI)
